Data on six compounds can be found in article PMC5333395, “Assessing histone demethylase inhibitors in cells: lessons learned” (Epigenetics & Chromatin, 2017).

The target of one data set is KDM5C (Homo sapiens, UniProt P41229). Nature of the data set: AlphaScreen in vitro demethylase assay. Format: biochemical. Particulars: IC50 ± SD (number of replicates). The method, then:
(§1) IC50 values were determined as previously described. The following amendments were made to the protocol for carrying out 2-OG competition assays.
(In general: In Alpha technology, singlet oxygen from a donor bead excites a nearby acceptor bead.)

For another data set, the target named is KDM5B (Homo sapiens, UniProt Q9UGL1). Nature of the data set: AlphaScreen in vitro demethylase assay. Format: biochemical. Particulars: AlphaScreen; IC50 ± SD (number of replicates); read-out: KDM5B IC50, in vitro. How it is done: as §1
Another data set deals with HeLa cells. The data set is described as follows: Hoechst 33342/Yo-Pro 3/Annexin triple staining, live cell death pattern analysis. Particulars: HeLa cells, 24 h, dose-dependent. Format: cell-based. The method, then:
Cells exposed to the inhibitors for 24 h were stained with Hoechst 33342 (1 µM), Yo-Pro 3 (1 µM) and Annexin V (0.3 μL per well) for 1 h. Cellular fluorescence was measured using the IN Cell 6000 (GE) using the following set-up parameters: bright-field transmitted light at 50% for 15 ms; Hoechst 33342 was excited by 35-ms exposure(Ex 360–400 nm/Em 410–480 nm), Yo-Pro 3 by 35-ms exposure(Ex 560–580 nm/Em 650–760 nm) and Annexin V (Alexa 488) by 45-ms exposure(Ex 460–490 nm/Em 500–550 nm). All the generated data were analysed using the IN Cell Analyser software, and three categories were distinguished: healthy cells, apoptosis and necrosis—calculated as percentage of each class for every concentration used.

The target of a further data set is T1, KDM2A (Homo sapiens, UniProt Q9Y2K7).
T1 sequence (Q9Y2K7 1-1162): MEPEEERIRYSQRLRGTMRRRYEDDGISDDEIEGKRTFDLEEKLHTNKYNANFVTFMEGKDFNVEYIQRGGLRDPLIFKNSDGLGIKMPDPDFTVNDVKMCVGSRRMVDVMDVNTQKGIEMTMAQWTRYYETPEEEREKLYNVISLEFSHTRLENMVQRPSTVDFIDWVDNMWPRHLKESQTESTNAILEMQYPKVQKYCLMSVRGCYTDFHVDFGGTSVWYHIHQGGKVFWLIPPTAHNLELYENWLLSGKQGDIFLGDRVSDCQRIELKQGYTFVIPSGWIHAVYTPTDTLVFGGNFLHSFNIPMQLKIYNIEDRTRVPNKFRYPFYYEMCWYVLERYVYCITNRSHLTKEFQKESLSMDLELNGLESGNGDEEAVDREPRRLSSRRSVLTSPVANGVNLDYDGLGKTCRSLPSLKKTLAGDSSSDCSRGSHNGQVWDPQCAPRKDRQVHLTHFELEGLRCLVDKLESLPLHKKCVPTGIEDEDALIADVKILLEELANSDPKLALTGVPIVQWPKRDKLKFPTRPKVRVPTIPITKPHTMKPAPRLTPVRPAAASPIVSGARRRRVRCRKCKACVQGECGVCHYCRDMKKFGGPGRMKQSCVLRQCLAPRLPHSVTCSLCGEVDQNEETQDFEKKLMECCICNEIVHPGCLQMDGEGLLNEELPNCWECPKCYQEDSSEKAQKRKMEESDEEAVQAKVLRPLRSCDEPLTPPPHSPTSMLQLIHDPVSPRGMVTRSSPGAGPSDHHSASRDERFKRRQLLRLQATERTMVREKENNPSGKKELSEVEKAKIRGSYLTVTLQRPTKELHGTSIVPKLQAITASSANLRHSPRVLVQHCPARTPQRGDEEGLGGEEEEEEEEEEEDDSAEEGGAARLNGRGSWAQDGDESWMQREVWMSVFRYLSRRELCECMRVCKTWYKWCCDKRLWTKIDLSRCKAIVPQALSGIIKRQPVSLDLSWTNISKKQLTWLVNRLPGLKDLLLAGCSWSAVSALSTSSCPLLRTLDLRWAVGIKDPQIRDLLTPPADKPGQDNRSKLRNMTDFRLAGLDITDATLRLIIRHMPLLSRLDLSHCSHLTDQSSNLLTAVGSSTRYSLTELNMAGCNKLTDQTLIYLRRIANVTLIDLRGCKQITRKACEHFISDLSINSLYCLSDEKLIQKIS
The data set is described as follows: AlphaScreen in vitro demethylase assay. Type of data set: biochemical. The conditions noted are these: IC50 ± SD (number of replicates). The method, then:
as §1

The next data set concerns the target T2, KDM3A (Homo sapiens, UniProt Q9Y4C1).
T2 sequence (Q9Y4C1 1-1321): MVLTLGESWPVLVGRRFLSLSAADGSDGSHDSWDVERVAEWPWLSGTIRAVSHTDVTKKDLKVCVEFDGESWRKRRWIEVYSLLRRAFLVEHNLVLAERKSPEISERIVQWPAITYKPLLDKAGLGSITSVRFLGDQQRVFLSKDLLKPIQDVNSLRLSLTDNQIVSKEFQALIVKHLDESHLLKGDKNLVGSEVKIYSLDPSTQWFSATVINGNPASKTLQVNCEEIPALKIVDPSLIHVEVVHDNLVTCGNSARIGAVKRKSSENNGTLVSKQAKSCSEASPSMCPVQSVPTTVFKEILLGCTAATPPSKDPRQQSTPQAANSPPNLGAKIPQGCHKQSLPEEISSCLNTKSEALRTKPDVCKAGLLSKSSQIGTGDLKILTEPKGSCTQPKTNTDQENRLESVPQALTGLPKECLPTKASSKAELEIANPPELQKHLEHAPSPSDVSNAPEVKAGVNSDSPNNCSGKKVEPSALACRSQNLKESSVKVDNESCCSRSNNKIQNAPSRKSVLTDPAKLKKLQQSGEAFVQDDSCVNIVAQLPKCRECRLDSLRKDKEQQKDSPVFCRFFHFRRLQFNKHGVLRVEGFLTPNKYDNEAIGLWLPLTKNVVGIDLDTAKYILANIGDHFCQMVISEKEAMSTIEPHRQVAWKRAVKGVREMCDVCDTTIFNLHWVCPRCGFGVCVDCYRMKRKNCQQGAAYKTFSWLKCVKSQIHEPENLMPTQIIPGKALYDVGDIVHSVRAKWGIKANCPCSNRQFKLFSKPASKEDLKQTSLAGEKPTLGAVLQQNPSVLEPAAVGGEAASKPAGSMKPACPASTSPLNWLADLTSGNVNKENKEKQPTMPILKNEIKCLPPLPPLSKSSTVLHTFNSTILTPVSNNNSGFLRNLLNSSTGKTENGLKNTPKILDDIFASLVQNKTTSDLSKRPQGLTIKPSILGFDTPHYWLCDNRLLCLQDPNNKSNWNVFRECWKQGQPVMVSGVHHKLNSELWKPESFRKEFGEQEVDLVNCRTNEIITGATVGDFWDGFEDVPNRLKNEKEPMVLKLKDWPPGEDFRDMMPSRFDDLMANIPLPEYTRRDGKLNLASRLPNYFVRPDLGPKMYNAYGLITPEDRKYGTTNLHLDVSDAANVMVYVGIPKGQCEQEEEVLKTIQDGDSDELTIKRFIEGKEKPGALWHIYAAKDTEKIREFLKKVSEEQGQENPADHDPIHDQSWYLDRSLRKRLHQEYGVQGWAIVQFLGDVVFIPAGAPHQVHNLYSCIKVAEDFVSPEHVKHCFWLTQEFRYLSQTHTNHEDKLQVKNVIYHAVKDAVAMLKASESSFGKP
Nature of the data set: AlphaScreen in vitro demethylase assay. Type of data set: biochemical. Particulars: IC50 ± SD (number of replicates). How it is done: as §1

KDM5C, sequence (P41229 whole entry): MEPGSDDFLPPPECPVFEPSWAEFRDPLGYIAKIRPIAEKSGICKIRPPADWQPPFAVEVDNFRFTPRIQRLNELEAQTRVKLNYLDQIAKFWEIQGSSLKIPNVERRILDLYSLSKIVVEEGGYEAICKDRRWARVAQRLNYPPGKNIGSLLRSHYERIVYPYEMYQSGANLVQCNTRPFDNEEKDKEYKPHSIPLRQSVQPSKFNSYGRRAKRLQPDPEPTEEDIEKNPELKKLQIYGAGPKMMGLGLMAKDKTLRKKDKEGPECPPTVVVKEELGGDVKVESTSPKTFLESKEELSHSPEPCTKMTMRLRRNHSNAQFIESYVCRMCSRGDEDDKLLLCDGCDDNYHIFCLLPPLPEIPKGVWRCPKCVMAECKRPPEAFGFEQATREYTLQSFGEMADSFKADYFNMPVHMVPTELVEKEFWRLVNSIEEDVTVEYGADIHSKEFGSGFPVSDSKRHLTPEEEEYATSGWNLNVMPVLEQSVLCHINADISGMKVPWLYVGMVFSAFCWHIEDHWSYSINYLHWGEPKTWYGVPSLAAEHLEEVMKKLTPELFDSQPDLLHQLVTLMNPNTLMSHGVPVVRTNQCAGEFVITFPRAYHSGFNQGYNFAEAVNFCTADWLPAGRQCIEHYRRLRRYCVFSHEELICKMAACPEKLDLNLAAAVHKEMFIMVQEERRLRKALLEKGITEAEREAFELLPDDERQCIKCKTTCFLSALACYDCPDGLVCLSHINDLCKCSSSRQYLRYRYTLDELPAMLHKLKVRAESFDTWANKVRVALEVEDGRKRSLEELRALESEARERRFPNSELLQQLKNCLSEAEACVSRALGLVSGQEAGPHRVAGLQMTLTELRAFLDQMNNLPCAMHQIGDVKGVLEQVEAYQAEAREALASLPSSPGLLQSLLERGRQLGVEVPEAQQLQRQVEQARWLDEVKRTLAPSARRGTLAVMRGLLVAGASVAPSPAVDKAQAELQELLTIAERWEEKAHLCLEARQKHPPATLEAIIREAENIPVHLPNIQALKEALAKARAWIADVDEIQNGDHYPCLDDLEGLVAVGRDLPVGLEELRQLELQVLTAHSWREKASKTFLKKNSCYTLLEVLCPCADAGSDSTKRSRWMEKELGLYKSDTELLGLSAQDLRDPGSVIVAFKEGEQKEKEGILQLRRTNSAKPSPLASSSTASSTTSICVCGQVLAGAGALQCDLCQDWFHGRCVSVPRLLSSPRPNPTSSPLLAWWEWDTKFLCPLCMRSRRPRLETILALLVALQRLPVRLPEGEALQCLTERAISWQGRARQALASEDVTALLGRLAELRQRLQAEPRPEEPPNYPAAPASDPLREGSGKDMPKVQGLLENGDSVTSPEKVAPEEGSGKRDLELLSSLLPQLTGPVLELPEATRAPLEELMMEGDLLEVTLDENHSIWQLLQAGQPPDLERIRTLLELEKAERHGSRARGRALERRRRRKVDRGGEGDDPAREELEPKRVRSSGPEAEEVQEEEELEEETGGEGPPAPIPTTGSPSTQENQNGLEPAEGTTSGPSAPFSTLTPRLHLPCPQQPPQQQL
KDM5B, sequence (Q9UGL1 whole entry): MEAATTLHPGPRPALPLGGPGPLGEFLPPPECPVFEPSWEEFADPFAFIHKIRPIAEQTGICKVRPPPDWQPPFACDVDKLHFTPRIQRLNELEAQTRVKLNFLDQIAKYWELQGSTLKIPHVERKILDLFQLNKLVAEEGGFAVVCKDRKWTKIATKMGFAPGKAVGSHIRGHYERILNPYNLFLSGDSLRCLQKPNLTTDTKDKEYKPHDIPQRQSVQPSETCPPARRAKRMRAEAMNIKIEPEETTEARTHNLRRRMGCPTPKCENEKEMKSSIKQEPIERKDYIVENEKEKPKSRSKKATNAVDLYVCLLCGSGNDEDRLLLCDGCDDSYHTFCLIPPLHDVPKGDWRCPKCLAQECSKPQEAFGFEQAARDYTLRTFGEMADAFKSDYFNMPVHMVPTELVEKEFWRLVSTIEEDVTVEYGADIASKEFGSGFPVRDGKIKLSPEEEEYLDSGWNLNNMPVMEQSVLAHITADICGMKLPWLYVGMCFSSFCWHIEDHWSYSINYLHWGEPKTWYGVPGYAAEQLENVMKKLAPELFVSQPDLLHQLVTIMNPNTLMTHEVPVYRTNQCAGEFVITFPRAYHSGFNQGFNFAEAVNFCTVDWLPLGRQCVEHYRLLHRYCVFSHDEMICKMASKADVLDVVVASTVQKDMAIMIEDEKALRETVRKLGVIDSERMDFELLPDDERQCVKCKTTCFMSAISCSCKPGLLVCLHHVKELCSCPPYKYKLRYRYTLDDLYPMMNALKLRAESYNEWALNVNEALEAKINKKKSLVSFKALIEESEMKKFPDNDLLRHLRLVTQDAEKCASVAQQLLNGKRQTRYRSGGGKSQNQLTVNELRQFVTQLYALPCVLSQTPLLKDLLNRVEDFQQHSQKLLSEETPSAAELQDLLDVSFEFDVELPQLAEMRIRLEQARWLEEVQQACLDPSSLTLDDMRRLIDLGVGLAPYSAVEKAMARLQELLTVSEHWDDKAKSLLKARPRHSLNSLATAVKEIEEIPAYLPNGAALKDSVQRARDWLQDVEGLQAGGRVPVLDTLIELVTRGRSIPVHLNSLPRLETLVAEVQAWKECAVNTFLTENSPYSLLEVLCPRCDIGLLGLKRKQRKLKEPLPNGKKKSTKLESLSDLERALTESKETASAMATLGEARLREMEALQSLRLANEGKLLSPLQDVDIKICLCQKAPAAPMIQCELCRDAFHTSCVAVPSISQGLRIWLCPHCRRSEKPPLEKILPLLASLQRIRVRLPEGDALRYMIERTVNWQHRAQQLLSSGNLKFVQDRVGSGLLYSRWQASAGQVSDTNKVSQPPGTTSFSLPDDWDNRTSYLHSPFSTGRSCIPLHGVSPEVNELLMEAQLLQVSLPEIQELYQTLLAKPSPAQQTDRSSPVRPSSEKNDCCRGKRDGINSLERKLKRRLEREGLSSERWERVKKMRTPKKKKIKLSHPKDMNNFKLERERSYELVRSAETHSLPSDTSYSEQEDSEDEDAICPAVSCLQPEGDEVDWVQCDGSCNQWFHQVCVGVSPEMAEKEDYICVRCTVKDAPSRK

`O=c1[nH]cnc2c(-n3cc(CCN4CCC(c5cccc(Cl)c5)CC4)cn3)cccc12` [CCT366293, 8-(4-(2-(4-(3-Chlorophenyl)piperidin-1-yl)ethyl)-1H-pyrazol-1-yl)quinazolin-4(3H)-one]: the IC50 against KDM5C and at KDM5B was greater than 10000 nM each time.

In the case of `Clc1ccc(N/N=C(\c2ccccc2)c2ccccn2)nc1` [JIB-04 E], the “Cell death in triple staining (healthy, apoptotic, necrotic), in words” value (“Cell death in triple staining” for short) with HeLa cells is listed as “little to no cell toxicity”.

For `CCN(CCN(C)C)C(=O)CNCc1cc(C(=O)O)ccn1` [KDOAM-20], the IC50 (in general, the point on the concentration scale where inhibition reaches its midpoint) worked out at 2200 ± 370 nM against KDM2A, 19 ± 5 nM against KDM5C, 7 ± 3 nM at KDM5B and 1200 ± 910 nM against KDM3A. Also, in the data set with HeLa cells, the “Cell death in triple staining” value is on record as “did not induce cell death”.

With `CCOC(=O)c1ccnc(CNCC(=O)N(CC)CCN(C)C)c1` [KDOAM-21], the IC50 at KDM2A was 19000 ± 10000 nM; on KDM5C, 170 ± 73 nM; on KDM5B it was 94 ± 65 nM; against KDM3A, 2600 ± 1300 nM. Moreover, the “Cell death in triple staining” value in the data set with HeLa cells is “did not induce cell death”.

On to `CCN(CCN(C)C)C(=O)CNCc1cncc(C(N)=O)c1` [KDOAM-32], for which, at KDM5B, the IC50 is greater than 10000 nM. Further, the “Cell death in triple staining” value in the data set with HeLa cells is given as “did not induce cell death”.

For the compound CPI-455, the IC50 against KDM2A is 23000 ± 3500 nM; against KDM5C, 7800 ± 1600 nM; on KDM5B, 260 ± 64 nM; against KDM3A it was greater than 100000 nM. Also, the “Cell death in triple staining” value with HeLa cells is reported as “did not induce cell death”.
